Values of other authors as cited in paper PMC3906704 (Journal of molecular biochemistry, 2012).

Details: substitution of Gly6 in GnRH-I; ref Karten & Rivier 1986

L-Ala^6: GnRH analog with L-Ala^6 substitution (QHWSYALRPG; Gonadoliberin-1; UniProt P01148 24-33, looked up, variant G6A)
Potency relative to native GnRH-I: 4%
